Test results as given in patent US8067454B2, “Thio-substituted Anthra [1, 2-d] imidazole- 6, 11-dione derivatives, preparation method and application thereof” (National Defense Medical Center, priority 2010, dated 2011).

Experiments:
[1] = test system: CCRF-CEM; assay: NCI 60-cell drug screen, Leukemia CCRF-CEM; type: cell-based, human; conditions: 1.00E−5 Molar
[2] = test system: K-562; assay: NCI 60-cell drug screen, Leukemia K-562; type: cell-based, human; conditions: 1.00E−5 Molar
[3] = test system: RPMI-8226; assay: NCI 60-cell drug screen, Leukemia RPMI-8226; type: cell-based, human; conditions: 1.00E−5 Molar
[4] = test system: EKVX; assay: NCI 60-cell drug screen, Non-Small Cell Lung Cancer EKVX; type: cell-based, human; conditions: 1.00E−5 Molar
[5] = test system: NCI-H226; assay: NCI 60-cell drug screen, Non-Small Cell Lung Cancer NCI-H226; type: cell-based, human; conditions: 1.00E−5 Molar
[6] = test system: NCI-H23; assay: NCI 60-cell drug screen, Non-Small Cell Lung Cancer NCI-H23; type: cell-based, human; conditions: 1.00E−5 Molar
[7] = test system: NCI-H460; assay: NCI 60-cell drug screen, Non-Small Cell Lung Cancer NCI-H460; type: cell-based, human; conditions: 1.00E−5 Molar
[8] = test system: KM12; assay: NCI 60-cell drug screen, Colon Cancer KM12; type: cell-based, human; conditions: 1.00E−5 Molar
[9] = test system: SW-620; assay: NCI 60-cell drug screen, Colon Cancer SW-620; type: cell-based, human; conditions: 1.00E−5 Molar
[10] = test system: SF-268; assay: NCI 60-cell drug screen, CNS Cancer SF-268; type: cell-based, human; conditions: 1.00E−5 Molar
[11] = test system: SNB-19; assay: NCI 60-cell drug screen, CNS Cancer SNB-19; type: cell-based, human; conditions: 1.00E−5 Molar
[12] = test system: MALME-3M; assay: NCI 60-cell drug screen, Melanoma MALME-3M; type: cell-based, human; conditions: 1.00E−5 Molar
[13] = test system: MDA-MB-435; assay: NCI 60-cell drug screen, Melanoma MDA-MB-435; type: cell-based, human; conditions: 1.00E−5 Molar
[14] = test system: SK-MEL-2; assay: NCI 60-cell drug screen, Melanoma SK-MEL-2; type: cell-based, human; conditions: 1.00E−5 Molar
[15] = test system: UACC-62; assay: NCI 60-cell drug screen, Melanoma UACC-62; type: cell-based, human; conditions: 1.00E−5 Molar
[16] = test system: OVCAR-5; assay: NCI 60-cell drug screen, Ovarian Cancer OVCAR-5; type: cell-based, human; conditions: 1.00E−5 Molar
[17] = test system: RXF 393; assay: NCI 60-cell drug screen, Renal Cancer RXF 393; type: cell-based, human; conditions: 1.00E−5 Molar
[18] = test system: TK-10; assay: NCI 60-cell drug screen, Renal Cancer TK-10; type: cell-based, human; conditions: 1.00E−5 Molar
[19] = test system: DU-145; assay: NCI 60-cell drug screen, Prostate Cancer DU-145; type: cell-based, human; conditions: 1.00E−5 Molar
[20] = test system: MCF7; assay: NCI 60-cell drug screen, Breast Cancer MCF7; type: cell-based, human; conditions: 1.00E−5 Molar
[21] = test system: T-47D; assay: NCI 60-cell drug screen, Breast Cancer T-47D; type: cell-based, human; conditions: 1.00E−5 Molar
[22] = test system: MDA-MB-468; assay: NCI 60-cell drug screen, Breast Cancer MDA-MB-468; type: cell-based, human; conditions: 1.00E−5 Molar
[23] = test system: SVG p12, GBM8401 and GBM8901; assay: MTT assay, normal cell versus tumor cells (categories 39-3 to 39-7); conditions: tumor cell survival rate less than 80%; FIG. 5C
[24] = test system: HT29; assay: NCI 60-cell drug screen, Colon Cancer HT29; type: cell-based, human; conditions: 1.00E−5 Molar
[25] = test system: OVCAR-3; assay: NCI 60-cell drug screen, Ovarian Cancer OVCAR-3; type: cell-based, human; conditions: 1.00E−5 Molar
[26] = test system: CAKI-1; assay: NCI 60-cell drug screen, Renal Cancer CAKI-1; type: cell-based, human; conditions: 1.00E−5 Molar
[27] = test system: HS 578T; assay: NCI 60-cell drug screen, Breast Cancer HS 578T; type: cell-based, human; conditions: 1.00E−5 Molar
[28] = test system: telomerase (total cell lysates of lung cancer cell line H1299); assay: Telomeric Repeat Amplification Protocol (TRAP) assay, screen of telomerase inhibitors; type: biochemical, human; conditions: 10 μM
Protocol: Telomeric Repeat Amplification Protocol (TRAP) Assay:
Telomerase activity was detected by a modified version of the general TRAP protocol. Telomerase products were resolved by 10% polyacrylamide gel electrophoresis and visualized by staining with SYBER Green. As a source of telomerase, the total cell lysates derived from lung cancer cell line H1299 cells were used. Protein concentration of the lysates was assayed using Bio-Rad protein assay kit using BSA standards.
In the TRAP assay, if a compound can stabilize the G-quadruplex structure such that telomerase can not act on telomere, then the effect of inhibiting the telomerase can be achieved. In the FIG. 2A to FIG. 2C, DMSO treatment represents as the positive control group (P); while a negative control group (N) used 5 μl of 0.1 mg/ml RNase A (CLONTECH) in the assay. It could be observed that a number of telomeric fragments were detected in the positive control group (P), while none was detected in the negative control group (N). 10 μM was selected as the concentration used to screen compounds.

SMILES | Growth Percent, CCRF-CEM [1] [%] | Growth Percent, K-562 [2] [%] | Growth Percent, RPMI-8226 [3] [%] | Growth Percent, EKVX [4] [%] | Growth Percent, NCI-H226 [5] [%] | Growth Percent, NCI-H23 [6] [%] | Growth Percent, NCI-H460 [7] [%] | Growth Percent, KM12 [8] [%] | Growth Percent, SW-620 [9] [%] | Growth Percent, SF-268 [10] [%] | Growth Percent, SNB-19 [11] [%] | Growth Percent, MALME-3M [12] [%] | Growth Percent, MDA-MB-435 [13] [%] | Growth Percent, SK-MEL-2 [14] [%] | Growth Percent, UACC-62 [15] [%] | Growth Percent, OVCAR-5 [16] [%] | Growth Percent, RXF 393 [17] [%] | Growth Percent, TK-10 [18] [%] | Growth Percent, DU-145 [19] [%] | Growth Percent, MCF7 [20] [%] | also measured
O=C1c2ccccc2C(=O)c2c1ccc1nc(SCCN3CCCC3)[nH]c21 [f1-11] | −15.39 | 26.94 | −60.17 | 73.04 | 88.06 | 66.93 | 34.08 | 19.62 | 22.75 | 42.04 | 60.47 | 112.31 | 66.47 | 106.62 | 80.95 | 87.49 | 22.62 | 36.86 | 17.91 | 30.88 | Growth Percent, T-47D [21]: 83.06%; Growth Percent, MDA-MB-468 [22]: 67.90%; category 39-5: survival rate higher than 80% for normal cell SVG p12 and only inhibits growth of tumor cell GBM8901 [23]: in this category
CN(C)CCCSc1nc2ccc3c(c2[nH]1)C(=O)c1ccccc1C3=O [f1-15, 2-(3-(dimethylamino)propylthio)-1H-anthra[1,2-d]imidazole-6,11-dione] | 8.49 | −31.59 | −13.69 | 65.23 | 74.10 | 53.83 | 23.20 | 20.36 | 26.35 | 53.13 | 79.67 | 88.23 | 72.18 | 80.03 | 75.39 | 87.88 | 38.40 | 31.68 | 36.35 | 16.92 | Growth Percent, HT29 [24]: 17.84%; Growth Percent, OVCAR-3 [25]: 59.33%; Growth Percent, CAKI-1 [26]: −14.89%; Growth Percent, HS 578T [27]: 69.32%; Growth Percent, T-47D [21]: 45.78%
O=C1c2ccccc2C(=O)c2c1ccc1nc3n(c21)CCS3 [f3-1, 2-(2-N-ethylthio)-1H-anthra[1,2-d]imidazole-6,11-dione] | 66.81 | 78.71 | 71.65 | 35.80 | 80.53 | 84.29 | 59.46 | 84.88 | 69.29 | 56.15 | 74.47 | 87.59 | 83.11 | 99.88 | 73.06 | 105.31 | 46.50 | 58.78 | 68.84 | 64.78 | inhibition effect against telomerase [28]: exhibited inhibition effect against telomerase; Growth Percent, T-47D [21]: 73.06%; Growth Percent, MDA-MB-468 [22]: 69.68%
